In patent US10307414B2, “Pyridinyl and fused pyridinyl triazolone derivatives” (Takeda Pharmaceutical Company Limited, priority 2013, dated 2019):

Target: human BTK (Homo sapiens (Human), UniProt Q06187)
Assay: BTK inhibition assay: BTK-mediated phosphorylation of FAM-labeled substrate 5-FAM-[…]-NH2 (Caliper microfluidic separation)
Assay type: biochemical
Settings: residues 382 to 659 of human BTK; 60 minutes at room temperature; pIC50 = -log(IC50), IC50 molar
Description: The activity of compounds as BTK inhibitors may be determined by a variety of methods, including in vitro and in vivo methods.
This construct engineers an in-frame translational fusion with the Glutathione-S-Transferase (GST) protein for use in affinity purification. The fusion protein derived from this construct contains a protease recognition sequence to liberate the BTK from the GST affinity tag. […] Recombinant proteins are isolated from cellular extracts by passage over Glutathione Sepharose 4B (GE Healthcare) and the BTK moiety is released from the GST affinity tag by treatment with PreScission protease. […] The purity of the fractions is assessed by SDS PAGE and the peak protein fractions are pooled and concentrated using Amicon Ultra-15 Centrifugal Filter Devices (Millipore).
The inhibitory properties of compounds relative to BTK is determined using a black 384-well-plate format in a buffer which contains 50 mM Hepes, 10 mM NaCl, 10 mM MgCl2, 0.2 mM EDTA, 0.01% Brij35®, 1 mM DTT, and 0.1 mg/mL BSA at pH 7.3. […] To quantify the fluorescent-labeled substrate and product following reaction, the test plate is loaded on a Caliper LC-3000, which measures percent of conversion by microfluidic-based separation. […]

Sequence of human BTK (Q06187 382-659): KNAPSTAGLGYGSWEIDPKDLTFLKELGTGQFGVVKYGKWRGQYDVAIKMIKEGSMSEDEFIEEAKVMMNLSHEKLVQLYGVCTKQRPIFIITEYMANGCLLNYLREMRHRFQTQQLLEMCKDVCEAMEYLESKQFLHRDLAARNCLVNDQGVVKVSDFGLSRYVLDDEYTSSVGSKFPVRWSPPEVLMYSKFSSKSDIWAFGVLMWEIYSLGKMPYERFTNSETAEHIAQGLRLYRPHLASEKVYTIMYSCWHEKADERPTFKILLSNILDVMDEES

SMILES: C=CC(=O)N1C[C@@H](C)[C@H](Oc2nc(-c3n[nH]c(=O)[nH]3)cc3ccccc23)C1 (single isomer, unassigned) [Example 19]
- BTK Inhibition (pIC50): >8.2
